Results reported in ChEMBL document CHEMBL5137080, “Discovery of Novel 7-Hydroxy-5-oxo-4,5-dihydrothieno[3,2-b]pyridine-6-carboxamide Derivatives with Potent and Selective Antifungal Activity against Cryptococcus Species” (J Med Chem, 2022).
In brackets after ≈: the same amount, converted by molar mass. Activity calls are given as the source filed them. The rule behind the calls is not given here.

Columns and labels:
Candida albicans = test: Antifungal activity against Candida albicans SC5314 assessed as fungal growth inhibition incubated for 48 hrs by broth microdilution method; format: functional
Aspergillus fumigatus = test: Antifungal activity against Aspergillus fumigatus 7544 assessed as fungal growth inhibition incubated for 48 hrs by broth microdilution method; format: functional
Cryptococcus neoformans [1] = test: Antifungal activity against Cryptococcus neoformans H99 assessed as fungal growth inhibition incubated for 72 hrs by broth microdilution method; format: functional
[2] = system: Cryptococcus gattii species complex; test: Antifungal activity against Cryptococcus gattii E566 assessed as fungal growth inhibition incubated for 72 hrs by broth microdilution method; format: functional
[3] = system: Cryptococcus deuterogattii; test: Antifungal activity against Cryptococcus gattii WM178 assessed as fungal growth inhibition incubated for 72 hrs by broth microdilution method; format: functional, Cryptococcus gattii species complex
Cryptococcus gattii = test: Antifungal activity against Cryptococcus gattii WM179 assessed as fungal growth inhibition incubated for 72 hrs by broth microdilution method; format: functional, Cryptococcus gattii species complex
[Candida] auris = Antifungal activity against Candida auris CBS 12372 assessed as fungal growth inhibition incubated for 48 hrs by broth microdilution method; format: functional; conditions: Candidozyma auris
Nakaseomyces glabratus [4] = test: Antifungal activity against Candida glabrata ATCC1182 assessed as fungal growth inhibition incubated for 48 hrs by broth microdilution method; format: functional
Cryptococcus neoformans [5] = test: Antifungal activity against Cryptococcus neoformans clinical isolate BJ3 assessed as fungal growth inhibition incubated for 72 hrs by broth microdilution method; format: functional
Pichia kudriavzevii = test: Antifungal activity against Candida krusei ATCC2340 assessed as fungal growth inhibition incubated for 48 hrs by broth microdilution method; format: functional
Candida tropicalis = test: Antifungal activity against Candida tropicalis ATCC20026 assessed as fungal growth inhibition incubated for 48 hrs by broth microdilution method; format: functional
Cryptococcus neoformans [6] = test: Antifungal activity against Cryptococcus neoformans clinical isolate 56992 assessed as fungal growth inhibition incubated for 72 hrs by broth microdilution method; format: functional
Cryptococcus neoformans [7] = test: Antifungal activity against Cryptococcus neoformans clinical isolate HN1 assessed as fungal growth inhibition incubated for 72 hrs by broth microdilution method; format: functional
Cryptococcus neoformans [8] = test: Antifungal activity against Cryptococcus neoformans clinical isolate HN2 assessed as fungal growth inhibition incubated for 72 hrs by broth microdilution method; format: functional
Cryptococcus neoformans [9] = test: Antifungal activity against Cryptococcus neoformans clinical isolate HN2-40 assessed as fungal growth inhibition incubated for 72 hrs by broth microdilution method; format: functional
Cryptococcus neoformans [10] = test: Antifungal activity against Cryptococcus neoformans clinical isolate HN15 assessed as fungal growth inhibition incubated for 72 hrs by broth microdilution method; format: functional
Cryptococcus neoformans [11] = test: Antifungal activity against Cryptococcus neoformans clinical isolate HN17 assessed as fungal growth inhibition incubated for 72 hrs by broth microdilution method; format: functional
Cryptococcus neoformans [12] = test: Antifungal activity against Cryptococcus neoformans clinical isolate HN19 assessed as fungal growth inhibition incubated for 72 hrs by broth microdilution method; format: functional
Cryptococcus neoformans [13] = test: Antifungal activity against Cryptococcus neoformans clinical isolate HN20 assessed as fungal growth inhibition incubated for 72 hrs by broth microdilution method; format: functional
Cryptococcus neoformans [14] = test: Antifungal activity against Cryptococcus neoformans clinical isolate SH68 assessed as fungal growth inhibition incubated for 72 hrs by broth microdilution method; format: functional
Cryptococcus neoformans [15] = test: Antifungal activity against Cryptococcus neoformans clinical isolate 443 assessed as fungal growth inhibition incubated for 72 hrs by broth microdilution method; format: functional
Cryptococcus neoformans [16] = test: Antifungal activity against Cryptococcus neoformans clinical isolate 444 assessed as fungal growth inhibition incubated for 72 hrs by broth microdilution method; format: functional
Cryptococcus neoformans [17] = test: Antifungal activity against Cryptococcus neoformans clinical isolate 445 assessed as fungal growth inhibition incubated for 72 hrs by broth microdilution method; format: functional
[18] = system: Cryptococcus gattii species complex; test: Antifungal activity against Cryptococcus gattii clinical isolate SCZ20024 assessed as fungal growth inhibition incubated for 72 hrs by broth microdilution method; format: functional
[19] = system: Cryptococcus gattii species complex; test: Antifungal activity against Cryptococcus gattii clinical isolate SCZ20031 assessed as fungal growth inhibition incubated for 72 hrs by broth microdilution method; format: functional
Cryptococcus neoformans [20] = test: Antifungal activity against Cryptococcus neoformans clinical isolate HN19 assessed as fungal growth inhibition incubated for 72 hrs in presence of Fluconazole by broth microdilution method; format: functional
Nakaseomyces glabratus [21] = test: Synergistic antifungal activity against Candida glabrata ATCC1182 assessed as fractional inhibitory concentration index incubated for 48 hrs in presence of Fluconazole by broth microdilution method; format: functional
Cryptococcus neoformans [22] = test: Antifungal activity against Cryptococcus neoformans H99 assessed as reduction on fungal growth at 8 ug/ml incubated for 48 hrs by plate reader assay; format: functional, organism-based; conditions: dose 8.0 µg/ml
Cryptococcus neoformans [23] = test: Antifungal activity against Cryptococcus neoformans H99 infected in Wax moth larvae assessed as reduction on fungal burden at 10 mg/kg measured after 9 days by 10 fold serial dilution method; format: functional; conditions: time 9 day
Cryptococcus neoformans [24] = test: Antifungal activity against Cryptococcus neoformans H99 infected in Wax moth larvae assessed as median survival time at 10 mg/kg measured after 9 days by Kaplan-Meier method; format: functional; conditions: time 9 day
[25] = system: Cryptococcus deuterogattii; test: Antifungal activity against Cryptococcus gattii WM178 infected in Wax moth larvae assessed as median survival time at 10 mg/kg measured after 9 days by Kaplan-Meier method; format: functional, Cryptococcus gattii species complex; conditions: time 9 day
[26] = Cytotoxicity against human HUVEC cells assessed as inhibition on cell growth incubated for 24 hrs by CCK-8 assay; format: toxicity, cell-based
[27] = Cytotoxicity against human HUVEC cells assessed as cell viability at 256 ug/ml incubated for 24 hrs by CCK-8 assay; format: toxicity, cell-based; conditions: at 256 µg/mL, read-out: Activity
[28] = Cytotoxicity against human Caco-2 cells assessed as cell viability at 256 ug/ml incubated for 24 hrs by CCK-8 assay; format: toxicity, cell-based; conditions: at 256 µg/mL, read-out: Activity
[29] = Hemolytic activity in rabbit RBC at 16 ug/ml incubated for 1 hr by spectrophotometry; format: toxicity, cell-based, Oryctolagus cuniculus, Erythrocyte; conditions: red blood cells, at 16 µg/mL, read-out: Activity
[30] = Hemolytic activity in rabbit RBC at 256 ug/ml incubated for 1 hr by spectrophotometry; format: toxicity, cell-based, Oryctolagus cuniculus, Erythrocyte; conditions: red blood cells, at 256 µg/mL, read-out: Activity
Cryptococcus neoformans [31] = test: Antifungal activity against Cryptococcus neoformans H99 infected in Wax moth larvae assessed as survival rate at 10 mg/kg measured after 9 days by Kaplan-Meier method; format: functional; conditions: H99, 216 h, time 9 day
[32] = system: Cryptococcus deuterogattii; test: Antifungal activity against Cryptococcus gattii WM178 infected in Wax moth larvae assessed as survival rate at 10 mg/kg measured after 9 days by Kaplan-Meier method; format: functional, Cryptococcus gattii species complex; conditions: WM178, 216 h, time 9 day
Cryptococcus neoformans [33] = test: Antifungal activity against Cryptococcus neoformans clinical isolate HN2 assessed as fungal growth inhibition incubated for 72 hrs in presence of P163-0892 by broth microdilution method; format: functional
Cryptococcus neoformans [34] = test: Antifungal activity against Cryptococcus neoformans clinical isolate BJ3 assessed as fungal growth inhibition incubated for 72 hrs in presence of P163-0892 by broth microdilution method; format: functional
[35] = system: Cryptococcus gattii species complex; test: Antifungal activity against Cryptococcus gattii clinical isolate SCZ20024 assessed as fungal growth inhibition incubated for 72 hrs in presence of P163-0892 by broth microdilution method; format: functional
Cryptococcus neoformans [36] = test: Synergistic antifungal activity against Cryptococcus neoformans H99 assessed as fractional inhibitory concentration index incubated for 72 hrs in presence of P163-0892 by broth microdilution method; format: functional
[37] = system: Cryptococcus deuterogattii; test: Synergistic antifungal activity against Cryptococcus gattii WM178 assessed as fractional inhibitory concentration index incubated for 72 hrs in presence of P163-0892 by broth microdilution method; format: functional, Cryptococcus gattii species complex

| SMILES | MIC (Candida albicans) [µg/mL] | MIC (Aspergillus fumigatus) [µg/mL] | MIC (Cryptococcus neoformans [1]) [µg/mL] | MIC [2] [µg/mL] | MIC [3] [µg/mL] | MIC (Cryptococcus gattii) [µg/mL] | MIC ([Candida] auris) [µg/mL] | MIC (Nakaseomyces glabratus [4]) [µg/mL] | MIC (Cryptococcus neoformans [5]) [µg/mL] | MIC (Pichia kudriavzevii) [µg/mL] | MIC (Candida tropicalis) [µg/mL] | MIC (Cryptococcus neoformans [6]) [µg/mL] | MIC (Cryptococcus neoformans [7]) [µg/mL] | MIC (Cryptococcus neoformans [8]) [µg/mL] | MIC (Cryptococcus neoformans [9]) [µg/mL] | MIC (Cryptococcus neoformans [10]) [µg/mL] | MIC (Cryptococcus neoformans [11]) [µg/mL] | MIC (Cryptococcus neoformans [12]) [µg/mL] | MIC (Cryptococcus neoformans [13]) [µg/mL] | MIC (Cryptococcus neoformans [14]) [µg/mL] | also measured |
| --- | --- | --- | --- | --- | --- | --- | --- | --- | --- | --- | --- | --- | --- | --- | --- | --- | --- | --- | --- | --- | --- |
| CCCCNC(=O)c1c(O)c2sccc2n(Cc2ccccc2)c1=O | > 64 | > 64 | 0.25 (≈ 0.701 µM) | 0.5 (≈ 1.4 µM) | 0.5 (≈ 1.4 µM) | 0.5 (≈ 1.4 µM) | > 64 | > 64 | 0.5 (≈ 1.4 µM) | > 64 | > 64 | 1 (≈ 2.81 µM) | 0.5 (≈ 1.4 µM) | 0.5 (≈ 1.4 µM) | 0.5 (≈ 1.4 µM) | 1 (≈ 2.81 µM) | 1 (≈ 2.81 µM) | 1 (≈ 2.81 µM) | 0.25 (≈ 0.701 µM) | 0.5 (≈ 1.4 µM) | MIC (Cryptococcus neoformans [15]): 1 µg/mL (≈ 2.81 µM); MIC (Cryptococcus neoformans [16]): 0.5 µg/mL (≈ 1.4 µM); MIC (Cryptococcus neoformans [17]): 2 µg/mL (≈ 5.61 µM); MIC [18]: 1 µg/mL (≈ 2.81 µM); MIC [19]: 1 µg/mL (≈ 2.81 µM); MIC (Cryptococcus neoformans [20]): 0.0313 µg/mL; fractional inhibitory concentration index (FICI) (Nakaseomyces glabratus [21]): 0.625; Activity (Cryptococcus neoformans [22]): Active; Activity (Cryptococcus neoformans [23]): 5.7 log10CFU/g; MST (Cryptococcus neoformans [24]): 2.5 days; MST [25]: 3 days; IC50 at 24 h [26]: > 64 µg/mL; viability at 24 h, 256 ug/ml [27]: 107%; viability at 24 h, 256 ug/ml [28]: 104%; hemolysis at 1 h, 16 ug/ml [29]: 2.32%; hemolysis at 1 h, 256 ug/ml [30]: 2.47%; survival at 10 mg/kg (Cryptococcus neoformans [31]): 30%; survival at 10 mg/kg [32]: 35% |
| OC(Cn1cncn1)(Cn1cncn1)c1ccc(F)cc1F [FLUCONAZOLE] | 0.5 (≈ 1.63 µM) | > 64 | 16 (≈ 52.2 µM) | 4 (≈ 13.1 µM) | 4 (≈ 13.1 µM) | 4 (≈ 13.1 µM) | 1 (≈ 3.27 µM) | > 64 | 2 (≈ 6.53 µM) | 8 (≈ 26.1 µM) | 2 (≈ 6.53 µM) | 2 (≈ 6.53 µM) | 2 (≈ 6.53 µM) | 2 (≈ 6.53 µM) | 1 (≈ 3.27 µM) | 4 (≈ 13.1 µM) | 4 (≈ 13.1 µM) | 4 (≈ 13.1 µM) | 0.5 (≈ 1.63 µM) | 8 (≈ 26.1 µM) | MIC (Cryptococcus neoformans [15]): 8 µg/mL (≈ 26.1 µM); MIC (Cryptococcus neoformans [16]): 4 µg/mL (≈ 13.1 µM); MIC (Cryptococcus neoformans [17]): 8 µg/mL (≈ 26.1 µM); MIC [18]: 4 µg/mL (≈ 13.1 µM); MIC [19]: 8 µg/mL (≈ 26.1 µM); MIC (Cryptococcus neoformans [33]): 0.25 µg/mL; MIC (Cryptococcus neoformans [34]): 0.25 µg/mL; MIC [35]: 1 µg/mL; fractional inhibitory concentration index (FICI) (Cryptococcus neoformans [36]): 0.375; fractional inhibitory concentration index (FICI) [37]: 0.25; Activity (Cryptococcus neoformans [23]): 5.3 log10CFU/g; MST (Cryptococcus neoformans [24]): 2.5 days; MST [25]: 3 days; IC50 at 24 h [26]: > 64 µg/mL; viability at 24 h, 256 ug/ml [27]: 108%; viability at 24 h, 256 ug/ml [28]: 95.3%; hemolysis at 1 h, 16 ug/ml [29]: 2.65%; hemolysis at 1 h, 256 ug/ml [30]: 2.67%; survival at 10 mg/kg (Cryptococcus neoformans [31]): 35%; survival at 10 mg/kg [32]: 40% |
